Experimental data published in ChEMBL document CHEMBL1201862, “PubChem BioAssay data set” (2004).
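48-hour exposure; five concentrations; linearly interpolated endpoints. At the GI50, growth is halved.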 Calls of active or inactive are those of the source. No stated cut-off is given here; in the data, active = GI50 up to about 1.1 µM and inactive = higher.

Columns and labels:
Test in all cases: NCI tumour cell line growth inhibition, 48 h
OVCAR-8 = system: OVCAR-8
K562 = system: K562
NCI-H23 = system: NCI-H23
NCI-H460 = system: NCI-H460
SR = system: SR
HT-29 = system: HT-29
SNB-19 = system: SNB-19
OVCAR-5 = system: OVCAR-5
MOLT-4 = system: MOLT-4
SN12C = system: SN12C
HCT-15 = system: HCT-15
ACHN = system: ACHN
DMS-273 = system: DMS-273
TK-10 = system: TK-10
COLO 205 = system: COLO 205
LOX IMVI = system: LOX IMVI
DMS-114 = system: DMS-114
OVCAR-3 = system: OVCAR-3
HCC 2998 = system: HCC 2998
SNB-75 = system: SNB-75
IGROV-1 = system: IGROV-1
RXF 631 = system: RXF 631
EKVX = system: EKVX
SF-268 = system: SF-268
M19-MEL = system: M19-MEL
KM-20L2 = system: KM-20L2
RPMI-8226 = system: RPMI-8226
KM12 = system: KM12
Malme-3M = system: Malme-3M
DLD-1 = system: DLD-1
CCRF-CEM = system: CCRF-CEM
SK-OV-3 = system: SK-OV-3
CAKI-1 = system: CAKI-1
HCT-116 = system: HCT-116
U-251 = system: U-251
SK-MEL-2 = system: SK-MEL-2
A549 = system: A549
SF-539 = system: SF-539
786-0 = system: 786-0
HOP-92 = system: HOP-92
HOP-62 = system: HOP-62
SK-MEL-28 = system: SK-MEL-28
RXF 393 = system: RXF 393
UO-31 = system: UO-31
M14 = system: M14
NCI-H226 = system: NCI-H226
OVCAR-4 = system: OVCAR-4
HL-60 = system: HL-60
NCI-H522 = system: NCI-H522
UACC-257 = system: UACC-257
SF-295 = system: SF-295
LXFL 529 = system: LXFL 529
SW-620 = system: SW-620
T47D = system: T47D
HOP-18 = system: HOP-18
A498 = system: A498
SNB-78 = system: SNB-78
MDA-MB-231 = system: MDA-MB-231
SK-MEL-5 = system: SK-MEL-5
PC-3 = system: PC-3
XF498 = system: XF498
MCF7 = system: MCF7
UACC-62 = system: UACC-62
DU-145 = system: DU-145
Hs-578T = system: Hs-578T
NCI/ADR-RES = system: NCI/ADR-RES
BT-549 = system: BT-549
MDA-MB-435 = system: MDA-MB-435

In the case of `N=C(N)NS(=O)(=O)c1ccc(NCCc2c3ccccc3nc3ccccc23)cc1`, the GI50 (OVCAR-8) is reported as > 100 µM (inactive), the GI50 (K562) is reported as 51.1 µM (inactive) and the GI50 (NCI-H23) is reported as > 10 µM (inactive). For the same compound, the GI50 (NCI-H460) was > 100 µM (inactive), the GI50 (SR) was 33.9 µM (inactive) and the GI50 (HT-29) was 64.4 µM (inactive). For the same compound, the GI50 (SNB-19) was > 100 µM (inactive), the GI50 (OVCAR-5) was > 100 µM (inactive) and the GI50 (MOLT-4) was 22.8 µM (inactive). For the same compound, the GI50 (SN12C) was > 100 µM (inactive), the GI50 (HCT-15) was greater than 100 µM and the GI50 (ACHN) was > 100 µM (inactive). For the same compound, the GI50 (DMS-273) was 72.4 µM (inactive), the GI50 (TK-10) was > 100 µM (inactive) and the GI50 (COLO 205) was 76 µM (inactive). The GI50 (LOX IMVI) was 70.1 µM (inactive), the GI50 (DMS-114) was 28.3 µM (inactive) and the GI50 (OVCAR-3) was > 100 µM (inactive). The GI50 (HCC 2998) was > 100 µM (inactive), the GI50 (SNB-75) was > 100 µM (inactive) and the GI50 (IGROV-1) was > 100 µM (inactive). For the same compound, the GI50 (RXF 631) was 35.5 µM (inactive), the GI50 (EKVX) was > 100 µM (inactive) and the GI50 (SF-268) was > 100 µM (inactive). The GI50 (M19-MEL) was > 100 µM (inactive), the GI50 (KM-20L2) was > 100 µM (inactive) and the GI50 (RPMI-8226) was 7.26 µM (inactive). For the same compound, the GI50 (KM12) was > 100 µM (inactive), the GI50 (Malme-3M) was > 100 µM (inactive) and the GI50 (DLD-1) was > 100 µM (inactive). For the same compound, the GI50 (CCRF-CEM) was 94 µM (inactive), the GI50 (SK-OV-3) was > 100 µM (inactive) and the GI50 (CAKI-1) was 87.1 µM (inactive). For the same compound, the GI50 (HCT-116) was 41.9 µM (inactive), the GI50 (U-251) was > 100 µM (inactive) and the GI50 (SK-MEL-2) was > 100 µM (inactive). For the same compound, the GI50 (A549) was > 100 µM (inactive), the GI50 (SF-539) was > 100 µM (inactive) and the GI50 (786-0) was > 100 µM (inactive). For the same compound, the GI50 (HOP-92) was > 100 µM (inactive), the GI50 (HOP-62) was > 100 µM (inactive) and the GI50 (SK-MEL-28) was > 100 µM (inactive). The GI50 (RXF 393) was > 100 µM (inactive), the GI50 (UO-31) was > 100 µM (inactive) and the GI50 (M14) was > 100 µM (inactive). For the same compound, the GI50 (NCI-H226) was > 100 µM (inactive), the GI50 (OVCAR-4) was 1.31 µM (inactive) and the GI50 (HL-60) was 19.4 µM (inactive). For the same compound, the GI50 (NCI-H522) was > 100 µM (inactive), the GI50 (UACC-257) was 52.5 µM (inactive) and the GI50 (SF-295) was > 100 µM (inactive). For the same compound, the GI50 (LXFL 529) was > 100 µM (inactive) and the GI50 (SW-620) was > 100 µM (inactive).

With `Cc1cccc(NC(=O)c2cccc([N+](=O)[O-])c2O)c1C` the GI50 (T47D) was 24.9 µM (inactive), the GI50 (OVCAR-8) was 33.7 µM (inactive) and the GI50 (K562) was 12.1 µM (inactive). The GI50 (NCI-H23) was 17.5 µM (inactive), the GI50 (NCI-H460) was 20.6 µM (inactive) and the GI50 (HOP-18) was 4.74 µM (inactive). The GI50 (SR) was 20.1 µM (inactive), the GI50 (HT-29) was 27.7 µM (inactive) and the GI50 (SNB-19) was 18.7 µM (inactive). The GI50 (OVCAR-5) was 30.6 µM (inactive), the GI50 (MOLT-4) was 19.4 µM (inactive) and the GI50 (SN12C) was 27.4 µM (inactive). The GI50 (HCT-15) was 31.4 µM, the GI50 (ACHN) was 28.6 µM (inactive) and the GI50 (DMS-273) was 22.2 µM (inactive). The GI50 (TK-10) was 53.6 µM (inactive), the GI50 (COLO 205) was 18.1 µM (inactive) and the GI50 (LOX IMVI) was 23 µM (inactive). For the same compound, the GI50 (DMS-114) was 32.4 µM (inactive), the GI50 (OVCAR-3) was 18.1 µM (inactive) and the GI50 (HCC 2998) was 28.4 µM (inactive). For the same compound, the GI50 (SNB-75) was 22.8 µM (inactive), the GI50 (IGROV-1) was 26.7 µM (inactive) and the GI50 (EKVX) was 26.7 µM (inactive). For the same compound, the GI50 (SF-268) was 33.2 µM (inactive), the GI50 (M19-MEL) was 21.9 µM (inactive) and the GI50 (KM-20L2) was 21.8 µM (inactive). For the same compound, the GI50 (RPMI-8226) was 3.14 µM (inactive), the GI50 (KM12) was 23.6 µM (inactive) and the GI50 (Malme-3M) was 33.8 µM (inactive). For the same compound, the GI50 (DLD-1) was 27.3 µM (inactive), the GI50 (CCRF-CEM) was 14.9 µM (inactive) and the GI50 (SK-OV-3) was 28.4 µM (inactive). The GI50 (CAKI-1) was 27.4 µM (inactive), the GI50 (HCT-116) was 28.2 µM (inactive) and the GI50 (U-251) was 25.3 µM (inactive). For the same compound, the GI50 (SK-MEL-2) was 4.92 µM (inactive), the GI50 (A549) was 21.5 µM (inactive) and the GI50 (A498) was 28.5 µM (inactive). For the same compound, the GI50 (SF-539) was 27.5 µM (inactive), the GI50 (786-0) was 37.7 µM (inactive) and the GI50 (HOP-92) was 16.4 µM (inactive). For the same compound, the GI50 (SNB-78) was 85.5 µM (inactive), the GI50 (MDA-MB-231) was 37.9 µM (inactive) and the GI50 (HOP-62) was 17.8 µM (inactive). For the same compound, the GI50 (SK-MEL-5) was 9.62 µM (inactive), the GI50 (SK-MEL-28) was 44.5 µM (inactive) and the GI50 (RXF 393) was 12.6 µM (inactive). The GI50 (UO-31) was 17.9 µM (inactive), the GI50 (PC-3) was 20.2 µM (inactive) and the GI50 (XF498) was 20.3 µM (inactive). For the same compound, the GI50 (M14) was 41.5 µM (inactive), the GI50 (NCI-H226) was 22.1 µM (inactive) and the GI50 (MCF7) was 27.4 µM (inactive). The GI50 (OVCAR-4) was 26.6 µM (inactive), the GI50 (HL-60) was 13.4 µM (inactive) and the GI50 (UACC-62) was 28 µM (inactive). For the same compound, the GI50 (NCI-H522) was 16.8 µM (inactive), the GI50 (DU-145) was 37.3 µM (inactive) and the GI50 (Hs-578T) was 43.6 µM (inactive). The GI50 (UACC-257) was 24.9 µM (inactive), the GI50 (SF-295) was 24.4 µM (inactive) and the GI50 (LXFL 529) was 34 µM (inactive). For the same compound, the GI50 (NCI/ADR-RES) was 16.5 µM (inactive), the GI50 (SW-620) was 37.9 µM (inactive) and the GI50 (BT-549) was 30.2 µM (inactive). For the same compound, the GI50 (MDA-MB-435) was 29.2 µM (inactive).
